{
  "source": "paper PMC5352783",
  "about": "“Characterization and cytotoxic effect of aqua-(2,2′,2′′-nitrilotriacetato)-oxo-vanadium salts on human osteosarcoma cells” (Biometals, 2017)",
  "key": {"[1]": {"assay": "Potentiometric titration, equilibrium constants of complex species in aqueous solution", "assay_type": "physicochemical", "settings": "for Logarithm of equilibrium constant, reaction 1: A + H3O^+ ⇋ AH^+ + H2O (AH^+ = bpyH^+ or phenH^+) / Logarithm of equilibrium constant, reaction 2 ([drawing 1]) / Logarithm of equilibrium constant, reaction 3 ([drawing 2]): 298.15 K, ionic strength 0.1 M NaClO4, standard deviation in parentheses", "experimental": "Potentiometric titrations were performed at 298.15 K by using Cerko Lab System microtitration unit fitted with 5‐mL Hamilton’s syringe and pH‐combined electrode (Schott‐BlueLine 16 pH type) All details for the measuring devices and the experimental setup were described in (Wyrzykowski et al. [2014]). The ionic strength was maintained at 0.1 M using NaClO4. The 6 mM [bpyH][VO(nta)(H2O)]H2O and [phenH][VO(nta)(H2O)](H2O)0.5 solutions (Vo = 5.0 mL) were potentiometrically titrated with a standardized NaOH solution (0.098 M). The concentration distribution of various complex species existing in the solution as a function of pH was obtained using the HySS program (Alderighi et al. [1999]).\nThe potentiometric titration method has been applied for studying the stability of [bpyH][VO(nta)(H2O)]H2O and [phenH][VO(nta)(H2O)](H2O)0.5 in aqueous solutions. The logarithm of the overall equilibrium constants of the complex species (Table 5) were refined by least-squares calculations using the Hyperquad2008 (ver. 5.2.19) computer program (Gans et al. [1996])."}, "[2]": {"system": "streptozotocin-induced (STZ) diabetic rats", "design": "method as in Thompson and Orvig [2006]", "settings": "oral, ref Thompson and Orvig [2006]; cited from earlier work"}, "[3]": {"system": "tumoral cell lines of human origin", "design": "method as in Evangelou [2002]; D’Cruz and Uckun [2002]; Dong et al. [2000]", "settings": "leukemia, breast, ovarian, prostate and testicular cancer cells; ref Evangelou [2002]; D’Cruz and Uckun [2002]; Dong et al. [2000]; cited from earlier work"}, "[4]": {"system": "UMR106 derived from rat osteosarcoma cells", "settings": "cited from earlier work; for Cytotoxicity, normal versus tumoral osteoblasts: MC3T3E1 (normal) versus UMR106 (tumoral); for Cellular proliferation: UMR106"}, "DNA": {"system": "DNA", "settings": "comparison of the three VO-oda compounds; cited from earlier work"}, "[5]": {"system": "MC3T3E1 derived from mouse calvaria", "settings": "cited from earlier work"}, "human osteosarcoma cells": {"system": "human osteosarcoma cells", "design": "method as in Yodoshi et al. [2007]", "settings": "rank among the three VO-oda compounds; ref Yodoshi et al. [2007]; cited from earlier work"}, "[6]": {"system": "animal and human cancer cell lines", "design": "method as in earlier work", "settings": "ref Havelek et al. [2012]; Vinklarek et al. [2004]; Gleeson et al. [2009]; Palackova et al. [2007]; cited from earlier work"}, "[7]": {"system": "human osteosarcoma cell (MG-63)", "assay": "BrdU test, cell proliferation", "assay_type": "cell-based", "settings": "48 h", "experimental": "(§1) The cell lines: two human osteosarcoma cell lines (MG-63 and HOS) and untransformed hFOB were used to assess an anti-proliferative and cytotoxic effect, respectively. hFOB cells were grown in a mixture of Dulbecco’s Modified Eagle’s Medium and Ham F12 medium (1:1 ratio), MG-63 and HOS in Eagle’s Minimum Essential Medium also containing sodium pyruvate 110 mg/L and supplemented with 10% fetal bovine serum, 6 μg/mL penicillin-G, and 10 μg/mL streptomycin.\n(§2) Cultured cancer cells with 80–90% confluence were used for plating. The adherent cells were trypsinized to detach cells. 100 µL of cells were seeded into each well of the 96-wells plates (1–5 × 10^4 cells per well). The plate was maintained at 37 °C in a incubator for 48 h until 80–90% confluence. Then, old media were discarded and the cells were treated with tested compounds and cisplatin as positive control. The concentrations of investigated compounds used in experiments were carefully selected according to the results obtained from a preliminary concentration–response study (data not shown). […] Fresh solutions of cisplatin were made up for each experiment owing to its instability in water. […]\nFig. 8 The inhibition of the human osteosarcoma cell (MG-63) proliferation after an incubation with investigated compounds assessed with the BrdU-test. […] Data are expressed as mean values ± SD from three experiments. ***p < 0.001 versus control"}, "[8]": {"system": "human osteosarcoma cell (HOS)", "assay": "BrdU test, cell proliferation", "assay_type": "cell-based", "settings": "48 h", "experimental": "as §1, §2\nFig. 9 The inhibition of the human osteosarcoma cell (HOS) proliferation after an incubation with investigated compounds assessed with the BrdU-test. […] Data are expressed as mean values ± SD from three experiments. ***p < 0.001 versus control"}, "[9]": {"settings": "at 25 °C; cited from earlier work"}},
  "note": "Read-outs that look alike come from different tables or passages of the source. Marks after values point to notes of the source that are not given here.",
  "data": [
    {"molecule": "2,2′-bipyridinium aqua-(2,2′,2′′-nitrilotriacetato)-oxo-vanadium monohydrate [[bpyH][VO(nta)(H2O)]H2O]", "values": [
      {"measurement": "Logarithm of equilibrium constant, reaction 1: A + H3O^+ ⇋ AH^+ + H2O (AH^+ = bpyH^+ or phenH^+)", "setting": "[1]", "result": "4.47 (0.03)^a"},
      {"measurement": "Logarithm of equilibrium constant, reaction 2 ([drawing 1])", "setting": "[1]", "result": "7.80 (0.06)"},
      {"measurement": "Logarithm of equilibrium constant, reaction 3 ([drawing 2])", "setting": "[1]", "result": "−19.94 (0.06)"}
    ]},
    {"molecule": "CCc1occc(=O)c1[O][V](=[O])[O]c1c(CC)occc1=O", "note": "[BEOV, VO(Etmaltolato)2]", "values": [
      {"measurement": "Effect on plasma glucose levels", "setting": "[2]", "result": "lower plasma glucose levels"}
    ]},
    {"molecule": "Cc1occc(=O)c1[O-].Cc1occc(=O)c1[O-].[O]=[V+2]", "note": "[BMOV, VO(maltolato)2]", "values": [
      {"measurement": "Effect on plasma glucose levels", "setting": "[2]", "result": "lower plasma glucose levels"}
    ]},
    {"molecule": "Cc1ccnc2c1ccc1c(C)ccnc12.Cc1ccnc2c1ccc1c(C)ccnc12.O=S(=O)([O-])[O-].[O]=[V+2]", "note": "[Metvan]", "values": [
      {"measurement": "Apoptosis", "setting": "[3]", "result": "induces apoptosis"}
    ]},
    {"molecule": "O=C([O-])COCC(=O)[O-].[O]=[V+2].c1ccc(-c2ccccn2)nc1", "note": "[VO(oda)(bpy)]", "values": [
      {"measurement": "Cytotoxicity, normal versus tumoral osteoblasts", "setting": "[4]; ref León et al. [2012b]", "result": "statistically stronger in the tumoral cells"},
      {"measurement": "DNA cleavage (nuclease activity)", "setting": "DNA", "result": "similar"}
    ]},
    {"molecule": "O=C([O-])COCC(=O)[O-].[O]=[V+2].c1cnc2c(c1)ccc1cccnc12", "note": "[VO(oda)(phen)]", "values": [
      {"measurement": "Cellular proliferation", "setting": "[5]; ref León et al. [2012b]", "result": "inhibition of the cellular proliferation"},
      {"measurement": "Cytotoxicity, normal versus tumoral osteoblasts", "setting": "[4]; ref León et al. [2012b]", "result": "stronger in the normal than in the tumoral osteoblasts"},
      {"measurement": "Cellular proliferation", "setting": "[4]; ref León et al. [2012b]", "result": "inhibition of the cellular proliferation"},
      {"measurement": "DNA cleavage (nuclease activity)", "setting": "DNA", "result": "stronger effect"},
      {"measurement": "Antitumor action", "setting": "human osteosarcoma cells", "result": "most potent antitumor action"}
    ]},
    {"molecule": "O=C([O-])COCC(=O)[O-].[O]=[V+2]", "note": "[VO(oda)]", "values": [
      {"measurement": "Cellular proliferation", "setting": "[5]; ref Rivadeneira et al. [2010]", "result": "inhibition of a cellular proliferation"},
      {"measurement": "Cytotoxicity, normal versus tumoral osteoblasts", "setting": "[4]; ref Rivadeneira et al. [2010]", "result": "stronger in the normal (MC3T3E1) than in the tumoral (UMR106) osteoblasts"},
      {"measurement": "Cellular proliferation", "setting": "[4]; ref Rivadeneira et al. [2010]", "result": "inhibition of a cellular proliferation"},
      {"measurement": "DNA cleavage (nuclease activity)", "setting": "DNA", "result": "similar"}
    ]},
    {"molecule": "[Cl-].[Cl-].[V+4].c1cc[cH-]c1.c1cc[cH-]c1", "note": "[[VCp2Cl2], bis(cyclopentadienyl) dichloro-V(IV)]", "values": [
      {"measurement": "In vitro activity against cancer cell lines", "setting": "[6]", "result": "high in vitro activity"}
    ]},
    {"molecule": "O.O=C([O-])CN(CC(=O)[O-])CC(=O)[O-].[O]=[V+2]", "note": "[[VO(nta)(H2O)]^−]", "values": [
      {"measurement": "pH up to which the aqua complex is stable", "setting": "[1]; aqueous solution, species distribution from the equilibrium constants", "result": "≤ 5"}
    ]},
    {"molecule": "O.O=C([O-])CN(CC(=O)[O-])CC(=O)[O-].[O]=[V+2].c1cnc2c(c1)ccc1ccc[nH+]c12", "note": "[[phenH][VO(nta)(H2O)](H2O)0.5]", "values": [
      {"measurement": "Logarithm of equilibrium constant, reaction 1: A + H3O^+ ⇋ AH^+ + H2O (AH^+ = bpyH^+ or phenH^+)", "setting": "[1]", "result": "5.00 (0.04)^a"},
      {"measurement": "Logarithm of equilibrium constant, reaction 2 ([drawing 1])", "setting": "[1]", "result": "7.93 (0.07)"},
      {"measurement": "Logarithm of equilibrium constant, reaction 3 ([drawing 2])", "setting": "[1]", "result": "−19.91 (0.08)"},
      {"measurement": "Anti-proliferative activity (BrdU incorporation)", "setting": "[7]; 1-100 μM", "result": "most effective anti-proliferative activity"},
      {"measurement": "Anti-proliferative activity compared with cis-Pt(NH3)2Cl2", "setting": "[7]; BrdU test", "result": "significantly higher"},
      {"measurement": "Anti-proliferative activity (BrdU incorporation)", "setting": "[8]; 1-100 μM", "result": "most effective anti-proliferative activity"},
      {"measurement": "Anti-proliferative activity compared with cis-Pt(NH3)2Cl2", "setting": "[8]; BrdU test", "result": "significantly higher"}
    ]},
    {"molecule": "cis-Pt(NH3)2Cl2 [cisplatin]", "values": [
      {"measurement": "water solubility", "setting": "[9]", "result": 0.253, "unit": "g/100 mL"}
    ]}
  ]
}
